Experimental data taken from patent US20240390238A1, “MINIMALIST EMULSION COMPOSITIONS” (Baek Clinical Inc., priority 2021, published 2024).

Experiments:
[1] = Procedure: A series of experiments were performed to assess and optimize the components of the subject vitamin C formulations. […] U refers to urea. % values are wt %
[2] = Comparative studies of prior-art ascorbic acid solutions; format: physicochemical; conditions: ascorbic acid with urea in propylene glycol, butylene glycol and propanediol
Procedure: This example was reproduced.
All mixtures were heated to 85° C.

[3] = Solubility of optional additional components in the solvents; format: physicochemical
Description: Additional ingredients were chosen for their compatibility with (e.g., miscibility in) 1,3 propanediol, 1,2 propanediol, and 1,3 butanediol.

[4] = system: erythema (skin redness); conditions: concentrations of 0.2%; clinical data from SEPPIC; cited from earlier work

NC(N)=O [urea]
Minimum amount U required to solubilize 20% AA [1]: ~10% | Solubility of U in 1,3 propanediol (saturation reached before recrystallization of U) [1]: ~27.8% | Maximum concentrations soluble before urea starts to precipitate (the ceiling) [2]: 20%

COc1cc(CC(C(C)=O)C(C)=O)ccc1O [Acetyl zingerone]
Solubility in 1,3 propanediol, 1,2 propanediol and 1,3 butanediol ([3]; at the desired concentrations (0.5-1%)): readily soluble

madecassoside
Solubility in 1,3 propanediol, 1,2 propanediol and 1,3 butanediol ([3]; at a concentration of 0.2%): soluble | Erythema (skin redness) [4]: desirable ability to reduce erythema

O=C(O)CCCCCCCC(=O)O [AzA, Azelaic acid, reference compound]
Concentration solubilized in 1,3 propanediol [3]: up to 10% | Solubility in 1,3 propanediol in the presence of hydroxyethyl urea [3]: slightly increased | Concentration solubilized in a 1,3 propanediol base ([3]; with 10% AA, 5% U): 7.5%

CC1(C)[C@@H](O[C@H]2O[C@H](C(=O)O)[C@@H](O)[C@H](O)[C@H]2O[C@@H]2O[C@H](C(=O)O)[C@@H](O)[C@H](O)[C@H]2O)CC[C@]2(C)[C@H]3C(=O)C=C4[C@@H]5C[C@@](C)(C(=O)O)CC[C@]5(C)CC[C@@]4(C)[C@]3(C)CC[C@@H]12 [glycyrrhizic acid, Glycyrrhizic acid]
Solubility in 1,3-propanediol ([3]; unlike 18B-glycyrrhetinic acid): shows solubility
